{
  "source": "paper PMC5760651",
  "about": "“Peptidomimetic blockade of MYB in acute myeloid leukemia” (Nature Communications, 2018)",
  "key": {"[1]": {"assay": "Plasma pharmacokinetics of BIO-MYBMIM, spectrophotometric avidin assay", "assay_type": "in vivo, mouse", "conditions": "C57BL/6J mice, single dose 25 mg/kg IP", "procedure": "All mouse experiments were carried out in accordance with the Memorial Sloan Kettering Institutional Animal Care and Use Committee. For toxicity studies, female C57BL/6J mice (The Jackson Laboratory, Bar Harbor, Maine, USA) were treated with MYBMIM peptide suspended in PBS and administered daily through intraperitoneal injection at a dose of 25 mg/kg for a total of 7 days. Mice were sacrificed at the end of treatment for hematologic, biochemical and histologic analyses. For pharmacokinetic studies, C57BL/6J mice (The Jackson Laboratory, Bar Harbor, Maine, USA) were treated with a single IP injection of 25 mg/kg BIO-MYBMIM, and blood plasma was collected 30 min, 2 h, 4 h, and 24 h post-injection. Quantification of BIO-MYBMIM was measured using the Quant-Tag Biotin kit (Vector Labs, cat. # BDK-2000) following the manufacturer instructions. For patient-derived xenografts, two hundred thousand primary AML MLL-rearranged leukemia cells were suspended in […] of PBS and transplanted via tail vein injection into 8-week-old sublethally irradiated (200 rad) female NOD.Cg-Prkdc(scid)Il2rg(tm1Wjl)/SzJ mice (The Jackson Laboratory, Bar Harbor, Maine, USA). […] Mice were treated from days 3–17 of this study for a total of 14 days and then monitored daily with clinical examination for survival analysis."}, "[2]": {"tested_on": "MOLM-13, MV-411, ML-2 and HL-60 cells", "assay": "Cell viability of AML cell lines", "assay_type": "cell-based, human", "conditions": "6 days, 20 μM TG1, TG2 or TG3, 10 and 20 μM MYBMIM, peptide replacement every 48 h, compared to untreated control", "procedure": "(§1) Cells were resuspended and plated at a concentration of 2 × 10^5 cells in 200 μl in 96-well tissue culture plates. Media with peptides was replaced every 48 h. To assess the number of viable cells, cells were resuspended in PBS and 10 µl of suspension was mixed in a 1:1 ratio with 0.4% Trypan Blue (Thermo Fisher) and counted using a hemacytometer (Hausser Scientific, Horsham, PA, USA). To assess viability using an ATP-based assay, cell viability was assessed using the CellTiter-Glo Luminescent Viability assay, according to the manufacturer’s instructions (Promega). Luminescence was recorded using the Infinite M1000Pro plate reader using integration time of 250 ms (Tecan)."}, "[3]": {"tested_on": "MOLM13, OCIAML2, and K562 cells", "assay": "Cell viability with L-amino acid containing peptides", "assay_type": "cell-based", "conditions": "20 μM, 2 days, three biological replicates", "procedure": "as §1\nSupplementary Figure 5. Viability of MOLM13, OCIAML2, and K562 cells, treated for 2 days with control PBS (black), 20 μM TATMYG (blue), and 20 μM TATMYB (red). Error bars […]\nbetween treatment conditions.\n(1 picture or pasted object on this page, not shown here)"}, "[4]": {"target": "FITC-conjugated MYB peptide (L-amino acid containing counterpart of MYBMIM) (UniProt P10242)", "assay": "MST"}, "[5]": {"target": "T1, purified recombinant CBP KIX domain (UniProt P45481 586-665)", "T1 construct": "also called KIX domain of CBP; source: E. coli BL21(DE3), pGEX-KIX, purified (glutathione agarose, thrombin cleavage, MonoS cation exchange)", "T1 sequence (P45481 586-665)": "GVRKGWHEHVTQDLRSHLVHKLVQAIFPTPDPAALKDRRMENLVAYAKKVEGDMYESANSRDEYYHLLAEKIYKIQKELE", "assay": "MST", "conditions": "both partners purified"}},
  "note": "Non-standard residues stand in square brackets, D forms with d. Residues, ends and D or L forms follow the SMILES beside them. No end group written: not given here. *: point of attachment. Biotin = O=C1N[C@H]2[C@H](CS[C@H]2CCCCC(=O)*)N1",
  "data": [
    {"molecule": "CC[C@@H](C)[C@@H](NC(=O)[C@@H](CCCCN)NC(=O)[C@@H](CCC(=O)O)NC(=O)[C@@H](CC(C)C)NC(=O)[C@@H](CCC(=O)O)NC(=O)[C@@H](CC(C)C)NC(=O)[C@@H](CC(C)C)NC(=O)[C@@H](CC(C)C)NC(=O)[C@@H](CCSC)NC(=O)[C@@H](CO)NC(=O)[C@H](NC(=O)[C@@H](CCC(=O)O)NC(=O)[C@@H](CC(N)=O)NC(=O)[C@@H](CCC(=O)O)NC(=O)[C@@H](CC(C)C)NC(=O)[C@@H](CCCCN)NC(C)=O)[C@H](C)O)C(=O)N[C@H](CCCNC(=N)N)C(=O)N[C@H](CCCCN)C(=O)NCC(=O)NCC(=O)N[C@H](CCCNC(=N)N)C(=O)N[C@H](CCCNC(=N)N)C(=O)N[C@H](CCCNC(=N)N)C(=O)N[C@H](CCC(N)=O)C(=O)N[C@H](CCCNC(=N)N)C(=O)N[C@H](CCCNC(=N)N)C(=O)N[C@H](CCCCN)C(=O)N[C@H](CCCCN)C(=O)N[C@H](CCCNC(=N)N)C(=O)NCC(=O)N[C@H](Cc1ccc(O)cc1)C(=O)N[C@H](CCCCNC(=O)CCCC[C@@H]1SC[C@@H]2NC(=O)N[C@@H]21)C(N)=O", "note": "[BIO-MYBMIM] (Ac-[dK][dL][dE][dN][dE][dT][dS][dM][dL][dL][dL][dE][dL][dE][dK][dI][dR][dK]GG[dR][dR][dR][dQ][dR][dR][dK][dK][dR]G[dY][dK](Biotin)-NH2)", "values": [
      {"measurement": "Plasma elimination", "setting": "[1]", "result": "biphasic elimination"},
      {"measurement": "Time of peak plasma peptide levels post injection", "setting": "[1]; plasma collected at 30 min, 2 h, 4 h, 24 h", "result": "≤ 30", "unit": "min"}
    ]},
    {"molecule": "CC[C@@H](C)[C@@H](NC(=O)[C@@H](CCCCN)NC(=O)[C@@H](CCC(=O)O)NC(=O)[C@@H](CC(C)C)NC(=O)[C@@H](CCC(=O)O)NC(=O)[C@@H](CC(C)C)NC(=O)[C@@H](CC(C)C)NC(=O)CNC(=O)[C@@H](CCSC)NC(=O)[C@@H](CO)NC(=O)[C@H](NC(=O)[C@@H](CCC(=O)O)NC(=O)[C@@H](CC(N)=O)NC(=O)[C@@H](CCC(=O)O)NC(=O)[C@@H](CC(C)C)NC(=O)[C@@H](CCCCN)NC(C)=O)[C@H](C)O)C(=O)N[C@H](CCCNC(=N)N)C(=O)N[C@H](CCCCN)C(=O)NCC(=O)NCC(=O)N[C@H](CCCNC(=N)N)C(=O)N[C@H](CCCNC(=N)N)C(=O)N[C@H](CCCNC(=N)N)C(=O)N[C@H](CCC(N)=O)C(=O)N[C@H](CCCNC(=N)N)C(=O)N[C@H](CCCNC(=N)N)C(=O)N[C@H](CCCCN)C(=O)N[C@H](CCCCN)C(=O)N[C@H](CCCNC(=N)N)C(=O)NCC(=O)N[C@H](Cc1ccc(O)cc1)C(N)=O", "note": "[TG1] (Ac-[dK][dL][dE][dN][dE][dT][dS][dM]G[dL][dL][dE][dL][dE][dK][dI][dR][dK]GG[dR][dR][dR][dQ][dR][dR][dK][dK][dR]G[dY]-NH2)", "values": [
      {"measurement": "Growth of AML cell lines", "setting": "[2]", "result": "inactive"}
    ]},
    {"molecule": "CC[C@@H](C)[C@@H](NC(=O)[C@@H](CCCCN)NC(=O)[C@@H](CCC(=O)O)NC(=O)[C@@H](CC(C)C)NC(=O)[C@@H](CCC(=O)O)NC(=O)[C@@H](CC(C)C)NC(=O)[C@@H](CC(C)C)NC(=O)CNC(=O)[C@@H](CCSC)NC(=O)[C@@H](CO)NC(=O)[C@H](NC(=O)[C@@H](CCC(=O)O)NC(=O)[C@@H](CC(N)=O)NC(=O)CNC(=O)[C@@H](CC(C)C)NC(=O)[C@@H](CCCCN)NC(C)=O)[C@H](C)O)C(=O)N[C@H](CCCNC(=N)N)C(=O)N[C@H](CCCCN)C(=O)NCC(=O)NCC(=O)N[C@H](CCCNC(=N)N)C(=O)N[C@H](CCCNC(=N)N)C(=O)N[C@H](CCCNC(=N)N)C(=O)N[C@H](CCC(N)=O)C(=O)N[C@H](CCCNC(=N)N)C(=O)N[C@H](CCCNC(=N)N)C(=O)N[C@H](CCCCN)C(=O)N[C@H](CCCCN)C(=O)N[C@H](CCCNC(=N)N)C(=O)NCC(=O)N[C@H](Cc1ccc(O)cc1)C(N)=O", "note": "[TG2] (Ac-[dK][dL]G[dN][dE][dT][dS][dM]G[dL][dL][dE][dL][dE][dK][dI][dR][dK]GG[dR][dR][dR][dQ][dR][dR][dK][dK][dR]G[dY]-NH2)", "values": [
      {"measurement": "Growth of AML cell lines", "setting": "[2]", "result": "inactive"}
    ]},
    {"molecule": "Ac-YGRKKRRQRRRGGKRIKELELLLMSTENELK-NH2 [TATMYB]", "values": [
      {"measurement": "Viability", "setting": "[3]", "result": "no significant differences"}
    ]},
    {"molecule": "Ac-YGRKKRRQRRRGGKRIKELELLLMSTENGLK-NH2 [TATMYG]", "values": [
      {"measurement": "Viability", "setting": "[3]", "result": "no significant differences"}
    ]},
    {"molecule": "purified recombinant CBP KIX domain (from UniProt P45481 586-665) (domain or fragment)", "values": [
      {"measurement": "Kd", "setting": "[4]", "result": 4.2, "unit": "µM"}
    ]},
    {"molecule": "[dK][dL]G[dN][dE][dT][dS][dM]G[dL][dL][dE][dL][dE][dK][dI][dR][dK]GG[dR][dR][dR][dQ][dR][dR][dK][dK][dR]G[dY]-NH2 (also: FITC-conjugated, site not given here)", "note": "[FITC-conjugated TG2]", "values": [
      {"measurement": "Kd", "setting": "[5]", "result": "75.1 ± 12.5", "unit": "µM"}
    ]},
    {"molecule": "[dK][dL][dE][dN][dE][dT][dS][dM]G[dL][dL][dE][dL][dE][dK][dI][dR][dK]GG[dR][dR][dR][dQ][dR][dR][dK][dK][dR]G[dY]-NH2 (also: FITC-conjugated, site not given here)", "note": "[FITC-conjugated TG1]", "values": [
      {"measurement": "Kd", "setting": "[5]", "result": "59.2 ± 12.4", "unit": "µM"}
    ]},
    {"molecule": "[dK][dL]G[dN][dE][dT][dS][dM]G[dL][dL][dE][dL][dE][dK][dI]G[dK]GG[dR][dR][dR][dQ][dR][dR][dK][dK][dR]G[dY]-NH2 (also: FITC-conjugated, site not given here)", "note": "[FITC-conjugated TG3]", "values": [
      {"measurement": "Kd", "setting": "[5]", "result": "114 ± 36.6", "unit": "µM"}
    ]},
    {"molecule": "[dK][dL][dE][dN][dE][dT][dS][dM][dL][dL][dL][dE][dL][dE][dK][dI][dR][dK] (also: FITC-conjugated, site not given here, retro-inverso TAT delivery segment not in chain)", "note": "[FITC-conjugated MYBMIM]", "values": [
      {"measurement": "Kd", "setting": "[5]", "result": "21.3 ± 2.9", "unit": "µM"}
    ]}
  ]
}
